Test results from patent publication US11168073B2, “3,3-difluoroallylamines or salts thereof and pharmaceutical compositions comprising the same” (YUHAN CORPORATION, priority 2018, dated 2021).
Structures can show the parent of a compound that is named as a salt. Where two headings read alike, the source gives them in different places.

Key:
Type in all cases: biochemical
recombinant human VAP-1 = biological target: T1, recombinant human VAP-1 (Homo sapiens, UniProt Q16853); assay: Activity evaluation on recombinant human VAP-1 (Amplex Red/HRP-coupled hydrogen peroxide assay, benzylamine substrate); conditions: read-out: Inhibitory Activity (IC50, nM) human VAP-1
T1 construct: purchased R&D systems
T1 sequence (Q16853 1-763): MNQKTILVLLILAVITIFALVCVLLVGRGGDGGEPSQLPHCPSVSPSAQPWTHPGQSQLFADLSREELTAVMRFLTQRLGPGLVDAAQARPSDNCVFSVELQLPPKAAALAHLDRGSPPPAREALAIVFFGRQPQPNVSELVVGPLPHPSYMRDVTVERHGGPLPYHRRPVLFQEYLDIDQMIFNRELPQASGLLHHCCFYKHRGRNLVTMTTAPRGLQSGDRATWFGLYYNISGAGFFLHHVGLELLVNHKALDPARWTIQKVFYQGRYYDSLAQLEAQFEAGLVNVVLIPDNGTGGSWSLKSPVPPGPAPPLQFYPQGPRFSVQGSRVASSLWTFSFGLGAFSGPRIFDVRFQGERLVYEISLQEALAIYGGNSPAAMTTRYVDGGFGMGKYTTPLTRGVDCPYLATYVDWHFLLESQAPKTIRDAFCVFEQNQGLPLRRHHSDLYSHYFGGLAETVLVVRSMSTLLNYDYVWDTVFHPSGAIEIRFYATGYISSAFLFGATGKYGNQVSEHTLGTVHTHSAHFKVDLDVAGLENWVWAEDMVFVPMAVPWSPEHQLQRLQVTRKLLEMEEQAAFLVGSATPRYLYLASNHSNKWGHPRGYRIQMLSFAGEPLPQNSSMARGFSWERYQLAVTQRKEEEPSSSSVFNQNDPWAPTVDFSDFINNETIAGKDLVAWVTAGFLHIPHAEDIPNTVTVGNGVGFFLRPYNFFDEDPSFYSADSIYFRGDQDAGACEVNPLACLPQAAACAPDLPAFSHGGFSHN
Summary of the method: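 Recombinant human VAP-1 in 50 mM sodium phosphate pH 7.4 preincubated 30 min at 37 °C with compound (8-point 1:3 series, <1% DMSO), then 1 mM benzylamine, 200 uM Amplex Red, 1 U/mL HRP added. H2O2-derived resorufin fluorescence (ex 544/em 590) followed 1–2 h; IC50 from four-parameter fit of rate inhibition.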

[1] = biological target: T2, recombinant human MAO-A (monoamine oxidase-A) (Homo sapiens, UniProt P21397); assay: Activity evaluation on recombinant human MAO-A (Amplex Red/HRP-coupled assay, 0.5 mM tyramine substrate); conditions: read-out: Inhibitory Activity (IC50, nM) MAO-A
T2 construct: purchased Sigma-Aldrich
T2 sequence (P21397 1-527): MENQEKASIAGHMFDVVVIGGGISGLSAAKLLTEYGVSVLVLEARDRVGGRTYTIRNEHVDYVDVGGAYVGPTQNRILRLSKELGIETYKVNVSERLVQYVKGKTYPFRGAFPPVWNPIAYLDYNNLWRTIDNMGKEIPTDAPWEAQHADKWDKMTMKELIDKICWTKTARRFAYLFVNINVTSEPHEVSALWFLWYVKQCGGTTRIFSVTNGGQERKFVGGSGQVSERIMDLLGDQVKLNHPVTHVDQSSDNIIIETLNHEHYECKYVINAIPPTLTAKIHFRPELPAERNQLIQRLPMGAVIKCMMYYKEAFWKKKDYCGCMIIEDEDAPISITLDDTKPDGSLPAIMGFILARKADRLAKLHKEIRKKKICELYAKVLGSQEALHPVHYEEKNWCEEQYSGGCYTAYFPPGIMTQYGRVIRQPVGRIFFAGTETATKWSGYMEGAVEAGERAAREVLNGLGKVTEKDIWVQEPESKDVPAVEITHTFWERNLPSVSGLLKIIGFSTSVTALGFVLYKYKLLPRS
Summary of the method: (§1)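 Compounds preincubated 30 min at 37 °C with enzyme in 50 mM sodium phosphate pH 7.4 (final DMSO <1%, 8-point 1:3 dilutions); reaction started with 200 uM Amplex Red, 1 U/mL HRP and substrate (MAO-A 0.5 mM tyramine, MAO-B 1 mM benzylamine, DAO 1 mM putrescine). Resorufin fluorescence (ex 544/em 590 nm) followed over 1-2 h; IC50 from four-parameter logistic fit.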

[2] = biological target: T3, recombinant human MAO-B (monoamine oxidase-B) (Homo sapiens, UniProt P27338); assay: Activity evaluation on recombinant human MAO-B (Amplex Red/HRP-coupled assay, 1 mM benzylamine substrate); conditions: read-out: Inhibitory Activity (IC50, nM) MAO-B
T3 construct: purchased Sigma-Aldrich
T3 sequence (P27338 1-520): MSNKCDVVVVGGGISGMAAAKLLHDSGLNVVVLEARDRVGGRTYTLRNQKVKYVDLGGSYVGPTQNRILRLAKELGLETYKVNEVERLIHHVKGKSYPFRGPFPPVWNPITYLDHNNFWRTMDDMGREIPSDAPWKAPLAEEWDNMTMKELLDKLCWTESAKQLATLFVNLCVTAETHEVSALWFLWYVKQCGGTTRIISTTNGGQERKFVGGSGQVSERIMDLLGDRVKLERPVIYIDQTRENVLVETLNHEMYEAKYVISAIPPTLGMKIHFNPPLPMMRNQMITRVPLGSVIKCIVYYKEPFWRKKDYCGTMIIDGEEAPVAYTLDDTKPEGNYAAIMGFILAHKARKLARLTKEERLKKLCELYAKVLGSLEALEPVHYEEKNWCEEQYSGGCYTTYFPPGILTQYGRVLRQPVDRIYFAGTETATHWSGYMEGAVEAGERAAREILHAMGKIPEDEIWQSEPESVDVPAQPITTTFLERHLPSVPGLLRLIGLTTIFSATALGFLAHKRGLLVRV
Summary of the method: as §1

[3] = biological target: T4, recombinant human DAO (diamine oxidase) (Homo sapiens, UniProt P19801); assay: Activity evaluation on recombinant human DAO (Amplex Red/HRP-coupled assay, 1 mM putrescine substrate); conditions: read-out: Inhibitory Activity (IC50, nM) DAO
T4 construct: purchased R&D systems
T4 sequence (P19801 20-751): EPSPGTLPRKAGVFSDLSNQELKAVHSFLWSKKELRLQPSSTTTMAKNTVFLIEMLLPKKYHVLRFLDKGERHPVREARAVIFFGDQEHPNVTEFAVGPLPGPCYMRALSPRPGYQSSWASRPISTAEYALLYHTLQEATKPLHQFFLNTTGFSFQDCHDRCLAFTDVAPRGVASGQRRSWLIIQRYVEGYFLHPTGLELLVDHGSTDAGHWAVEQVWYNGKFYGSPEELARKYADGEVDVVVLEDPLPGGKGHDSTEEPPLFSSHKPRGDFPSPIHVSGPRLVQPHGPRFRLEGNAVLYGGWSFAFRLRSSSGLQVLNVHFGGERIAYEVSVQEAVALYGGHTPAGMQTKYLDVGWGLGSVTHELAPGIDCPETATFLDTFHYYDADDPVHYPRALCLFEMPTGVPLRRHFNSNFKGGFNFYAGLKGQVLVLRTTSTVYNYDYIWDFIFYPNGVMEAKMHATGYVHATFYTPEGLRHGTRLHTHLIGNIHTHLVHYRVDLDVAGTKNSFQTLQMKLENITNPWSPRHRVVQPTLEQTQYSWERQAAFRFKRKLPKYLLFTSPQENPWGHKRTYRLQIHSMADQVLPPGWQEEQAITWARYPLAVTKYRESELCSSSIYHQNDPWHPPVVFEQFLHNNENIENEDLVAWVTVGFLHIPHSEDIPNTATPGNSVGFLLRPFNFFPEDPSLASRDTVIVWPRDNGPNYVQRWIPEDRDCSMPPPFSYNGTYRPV
Summary of the method: as §1

[4] = recombinant human VAP-1, 30 min preincubation at 37° C., 1 mM benzylamine
[5] = recombinant human VAP-1, benzylamine substrate

| SMILES | IC50 (recombinant human VAP-1; [4]) [nM] | IC50 ([1]; 0.5 mM tyramine) [nM] | IC50 ([2]; 1 mM benzylamine) [nM] | IC50 ([3]; 1 mM putrescine) [nM] | IC50 (recombinant human VAP-1; [5]) [nM] | IC50 ([1]; 0.5 mM tyramine substrate) [nM] | IC50 ([2]; 1 mM benzylamine substrate) [nM] | IC50 ([3]; 1 mM putrescine substrate) [nM] |
| --- | --- | --- | --- | --- | --- | --- | --- | --- |
| CCn1cc(-c2ccc(-n3cnn(CC(CN)=C(F)F)c3=O)cn2)cn1 [Example 45, 2-[2-(aminomethyl)-3,3-difluoro-allyl]-4-[6-(1-ethylpyrazol-4-yl)-3-pyridyl]-1,2,4-triazol-3-one Trifluoroacetate] | 0.2 | > 100000 | 410 | 200 |  |  |  |  |
| CN1C(=O)CCc2cc(-c3cccc(-n4cnn(CC(CN)=C(F)F)c4=O)n3)ccc21 [Example 52, 6-[6-[1-[2-(aminomethyl)-3,3-difluoro-allyl]-5-oxo-1,2,4-triazol-4-yl]-2-pyridyl]-1-methyl-3,4-dihydroquinolin-2-one Trifluoroacetate] | 0.9 | > 100000 | 23000 | 300 |  |  |  |  |
| NCC(Cn1ncn(-c2ncc(-c3ccc4c(c3)OCO4)cc2F)c1=O)=C(F)F [Example 85, 2-[2-(aminomethyl)-3,3-difluoro-allyl]-4-[5-(1,3-benzodioxol-5-yl)-3-fluoro-2-pyridyl]-1,2,4-triazol-3-one Trifluoroacetate] | 0.2 | > 100000 | 130 | 180 |  |  |  |  |
| Cc1c(-c2ccc(S(C)(=O)=O)cc2)cccc1-n1cnn(CC(CN)=C(F)F)c1=O [Example 253, 2-[2-(aminomethyl)-3,3-difluoro-allyl]-4-[2-methyl-3-(4-methylsulfonylphenyl)phenyl]-1,2,4-triazol-3-one Trifluoroacetate] |  |  |  |  | 2.8 | > 100000 | > 100000 | 8700 |
| NCC(Cn1ncn(Cc2ccc(C#Cc3ccc(N4CCOCC4)nc3)s2)c1=O)=C(F)F [Example 163, 2-[2-(aminomethyl)-3,3-difluoro-allyl]-4-[[5-[2-(6-morpholino-3-pyridyl)ethynyl]-2-thienyl]methyl]-1,2,4-triazol-3-one Trifluoroacetate] | 0.4 | > 100000 | 31000 | 8400 |  |  |  |  |
| NCC(Cn1ncn(Cc2ccc(C#Cc3ccc4c(c3)CCC(=O)N4)s2)c1=O)=C(F)F [Example 165, 6-[2-[5-[[1-[2-(aminomethyl)-3,3-difluoro-allyl]-5-oxo-1,2,4-triazol-4-yl]methyl]-2-thienyl]ethynyl]-3,4-dihydro-1H-quinolin-2-one Trifluoroacetate] | 0.5 | > 100000 | 5900 | > 10000 |  |  |  |  |
| Cc1c(-c2cnn(C(C)C)c2)cccc1-n1cnn(CC(CN)=C(F)F)c1=O [Example 262, 2-[2-(aminomethyl)-3,3-difluoro-allyl]-4-[3-(1-isopropylpyrazol-4-yl)-2-methyl-phenyl]-1,2,4-triazol-3-one Trifluoroacetate] |  |  |  |  | 7.4 | > 100000 | > 100000 | > 100000 |
| Cc1cc(-c2ccc(-n3cnn(CC(CN)=C(F)F)c3=O)cc2F)cc2c1NC(=O)CC2 [Example 29, 6-[4-[1-[2-(aminomethyl)-3,3-difluoro-allyl]-5-oxo-1,2,4-triazol-4-yl]-2-fluoro-phenyl]-8-methyl-3,4-dihydro-1H-quinolin-2-one Trifluoroacetate] | 0.2 | > 100000 | 150 | 200 |  |  |  |  |
| CN(C)c1ccc(-c2cc(F)c(Cn3cnn(CC(CN)=C(F)F)c3=O)s2)cn1 [Example 303, 2-(2-(aminomethyl)-3,3-difluoroallyl)-4-((5-(6-(dimethylamino)pyridin-3-yl)-3-fluorothiophen-2-yl)methyl)-2,4-dihydro-3H-1,2,4-triazol-3-one trifluoroacetate] |  |  |  |  | 0.8 | > 100000 | > 100000 | > 100000 |
| NCC(Cn1ncn(Cc2cc(-c3cc(F)c4[nH]c(=O)ccc4c3)cs2)c1=O)=C(F)F [Example 189, 6-[5-[[1-[2-(aminomethyl)-3,3-difluoro-allyl]-5-oxo-1,2,4-triazol-4-yl]methyl]-3-thienyl]-8-fluoro-1H-quinolin-2-one Trifluoroacetate] |  |  |  |  | 0.5 | > 100000 | > 100000 | 23000 |
| NCC(Cn1ncn(Cc2ccc(-c3cccc(-c4nc[nH]n4)c3)s2)c1=O)=C(F)F [Example 185, 2-[2-(aminomethyl)-3,3-difluoro-allyl]-4-[[5-[3-(1H-1,2,4-triazol-3-yl)phenyl]-2-thienyl]methyl]-1,2,4-triazol-3-one Trifluoroacetate] |  |  |  |  | 1.3 | > 100000 | 28000 | > 100000 |
| COc1ccc(-c2ccc(Cn3cnn(CC(CN)=C(F)F)c3=O)s2)cn1 [Example 113, 2-[2-(aminomethyl)-3,3-difluoro-allyl]-4-[[5-(6-methoxy-3-pyridyl)-2-thienyl]methyl]-1,2,4-triazol-3-one Trifluoroacetate] | 0.6 | > 100000 | 2700 | 19000 |  |  |  |  |
